Measured values reported in ChEMBL document CHEMBL6182894, “Design, synthesis, and biological evaluation of quinolinyl-ureido-phenyl-hydrazide derivatives and quinolinyl-hydrazide derivatives as anticancer agents targeting Nur77-mediated ferroptosis” (Eur J Med Chem, 2025).
Active and inactive are the calls of the source. The rule behind the calls is not given here.

Assays:
HepG2 [1] = experiment: Antiproliferative activity against human HepG2 cells assessed as inhibition of cell growth by MTT assay
MCF7 [2] = experiment: Upregulation of Nur77 protein expression in human MCF7 cells at 3 uM measured at 2 to 10 hrs by Western blot assay; assay type: functional, cell-based; conditions: time 2-10 hrs
MCF7 [3] = experiment: Inhibition of colony formation in human MCF7 cells at 4.5 uM incubated for 3 days by crystal violet staining based analysis relative to control; assay type: functional; conditions: MCF7, 72 h, time 3 day
[4] = Cmax in nude BALB/c mouse at 20 mg/kg, IG measured after 24 hrs; assay type: ADME, organism-based; conditions: in vivo, po
MCF7 [5] = experiment: Induction of ferroptosis in Nur77 knockout human MCF7 cells assessed as accumulation of lipid peroxidation at 3 uM incubated for 24 hrs by BODIPYTM 581/591C11 probe based inverted fluorescence microscopic analysis; assay type: functional, cell-based
HCT-116 = experiment: Antiproliferative activity against human HCT-116 cells assessed as inhibition of cell growth by MTT assay
MDA-MB-231 = experiment: cells; conditions: Homo sapiens, MDA-MB-231, 24 h
Description: Antiproliferative activity against human MDA-MB-231 cells assessed as inhibition of cell growth incubated for 24 hrs by MTT assay

MCF7 [6] = experiment: Antitumor activity against human MCF7 cells xenografted in nude BALB/c mouse assessed as decrease in GPX4 level in tumor at 10 to 20 mg/kg/day, IG administered on alternative days for 21 days by immunohistochemical analysis; assay type: functional, organism-based; conditions: dose 10-20 mg/kg/day, time 21.0 day
MCF7 [7] = experiment: Induction of apoptosis in human MCF7 cells assessed as viable cells at 6 uM incubated for 24 hrs by Annexin V-FITC/PI staining based flow cytometry analysis (reference value: 98.1%); assay type: functional; conditions: read-out: Activity
BT-549 = experiment: cells; conditions: Homo sapiens, BT-549, 24 h
Description: Antiproliferative activity against human BT-549 cells assessed as inhibition of cell growth incubated for 24 hrs by MTT assay

MCF7 [8] = experiment: Induction of apoptosis in human MCF7 cells assessed as viable cells at 3 uM incubated for 24 hrs by Annexin V-FITC/PI staining based flow cytometry analysis (reference value: 98.1%); assay type: functional; conditions: read-out: Activity
MCF7 [9] = experiment: Induction of apoptosis in human MCF7 cells assessed as necrotic cells at 6 uM incubated for 24 hrs by Annexin V-FITC/PI staining based flow cytometry analysis (Rvb =0.2%); assay type: functional
MCF7 [10] = experiment: Antitumor activity against human MCF7 cells xenografted in nude BALB/c mouse assessed as tumor growth inhibition at 10 mg/kg/day, IG administered on alternative days for 21 days relative to control; assay type: functional; conditions: MCF7, po, 504 h, time 21 day, read-out: TGI
MCF7 [11] = experiment: Cytotoxicity in Nur77 knockout human MCF7 cells at 1 to 3 uM incubated for 24 hrs by MTT assay; assay type: functional, cell-based; conditions: dose 1-3 µM
MCF7 [12] = experiment: Induction of apoptosis in human MCF7 cells assessed as early apoptotic cells at 3 uM incubated for 24 hrs by Annexin V-FITC/PI staining based flow cytometry analysis (Rvb =0.82%); assay type: functional
MCF7 [13] = experiment: Induction of ferroptosis in human MCF7 cells assessed as increase in malondialdehyde level at 1.5 to 4.5 uM incubated for 24 hrs by MDA assay; assay type: functional, cell-based; conditions: dose 1.5-4.5 µM
MCF7 [14] = experiment: Anticancer activity in human MCF7 cells assessed as reduction in cell viability at 3 uM in presence of fer-1 by MTT assay; assay type: functional, cell-based
MCF7 [15] = experiment: Induction of ferroptosis in Nur77 knockout human MCF7 cells assessed as […] at 3 uM incubated for 24 hrs by BODIPYTM 581/591C11 probe based flow cytometry analysis; assay type: functional, cell-based
MCF7 [16] = experiment: cells; conditions: Homo sapiens, MCF7, 24 h
Description: Antiproliferative activity against human MCF7 cells assessed as inhibition of cell growth incubated for 24 hrs by MTT assay

T47D [17] = experiment: Induction of ferroptosis in human T47D cells assessed as increase in malondialdehyde level at 1.5 to 4.5 uM incubated for 24 hrs by MDA assay; assay type: functional, cell-based; conditions: dose 1.5-4.5 µM
MCF7 [18] = experiment: Anticancer activity in human MCF7 cells assessed as cell viability at 3 uM in presence of DFO by MTT assay; assay type: functional, cell-based
T47D [19] = experiment: cells; conditions: Homo sapiens, 24 h
Description: Antiproliferative activity against human T47D cells assessed as inhibition of cell growth incubated for 24 hrs by MTT assay

[20] = Toxicity in nude BALB/c mouse xenografted with human MCF7 cells assessed as appearance of intact hepatic lobules with central veins and cords of radiating hepatocytes at 10 to 20 mg/kg/day, IG administered on alternative days for 21 days by H and E staining analysis; assay type: organism-based; conditions: in vivo, po, 504 h, dose 10-20 mg/kg/day, time 21 day
MCF7 [21] = experiment: Induction of ferroptosis in human MCF7 cells assessed as effect on SLC7A11 expression at 3 uM incubated for 24 hrs in presence of fer-1 by Western blot analysis; assay type: functional, cell-based
MCF7 [22] = experiment: Upregulation of Nur77 protein expression in human MCF7 cells at 3 to 6 uM measured at 2 hrs by Western blot assay; assay type: functional, cell-based; conditions: dose 3-6 µM
MCF7 [23] = experiment: Antitumor activity against human MCF7 cells xenografted in nude BALB/c mouse assessed as increase in Nur77 level in tumor at 10 to 20 mg/kg/day, IG administered on alternative days for 21 days by immunohistochemical analysis; assay type: functional, organism-based; conditions: dose 10-20 mg/kg/day, time 21.0 day
MCF7 [24] = experiment: Induction of apoptosis in human MCF7 cells assessed as necrotic cells at 3 uM incubated for 24 hrs by Annexin V-FITC/PI staining based flow cytometry analysis (Rvb =0.2%); assay type: functional
MCF7 [25] = experiment: Induction of ROS production in Nur77 knockout human MCF7 cells at 3 uM incubated for 24 hrs by DCFH-DA staining based flow cytometric analysis; assay type: functional, cell-based
[26] = Toxicity in nude BALB/c mouse xenografted with human MCF7 cells assessed as change in body weight at 10 to 20 mg/kg/day, IG administered on alternative days for 21 days; assay type: organism-based; conditions: in vivo, po, 504 h, dose 10-20 mg/kg/day, time 21 day
MCF7 [27] = experiment: Induction of ferroptosis in human MCF7 cells assessed as accumulation of lipid peroxidation at 3 uM incubated for 24 hrs by BODIPYTM 581/591C11 probe based inverted fluorescence microscopic analysis; assay type: functional, cell-based
MCF7 [28] = experiment: Antitumor activity against human MCF7 cells xenografted in nude BALB/c mouse assessed as tumor growth inhibition at 20 mg/kg/day, IG administered on alternative days for 21 days relative to control; assay type: functional; conditions: MCF7, po, 504 h, time 21 day, read-out: TGI
HepG2 [29] = experiment: Induction of ferroptosis in human HepG2 cells assessed as decrease in GPX4 expression at 3 uM incubated for 24 hrs by Western blot analysis; assay type: functional, cell-based
MCF7 [30] = experiment: Induction of ferroptosis in human MCF7 cells assessed as decrease in GPX4 expression at 3 uM incubated for 24 hrs in presence of fer-1 by Western blot analysis; assay type: functional, cell-based
HepG2 [31] = experiment: Induction of ferroptosis in Nur77 knockout human HepG2 cells assessed as increase in GPX4 expression at 3 uM incubated for 24 hrs by Western blot analysis; assay type: functional, cell-based
MCF7 [32] = experiment: Induction of ferroptosis in Nur77 knockout human MCF7 cells assessed as […] incubated for 24 hrs by Western blot analysis; assay type: functional, cell-based
MCF7 [33] = experiment: Antiproliferative activity against Nur77 knockout human MCF7 cells at 3 uM incubated for 24 hrs by EdU staining based analysis; assay type: functional, cell-based
MCF7 [34] = experiment: Antiproliferative activity against human MCF7 cells assessed as inhibition of cell growth at 50 uM by MTT assay relative to control; assay type: functional
MCF7 [35] = experiment: Induction of apoptosis in human MCF7 cells assessed as late apoptotic cells at 3 uM incubated for 24 hrs by Annexin V-FITC/PI staining based flow cytometry analysis (Rvb =0.86%); assay type: functional
[36] = Half life in nude BALB/c mouse at 20 mg/kg, IG measured after 24 hrs; assay type: ADME, organism-based; conditions: in vivo, po
MCF7 [37] = experiment: Induction of apoptosis in human MCF7 cells assessed as late apoptotic cells at 6 uM incubated for 24 hrs by Annexin V-FITC/PI staining based flow cytometry analysis (Rvb =0.86%); assay type: functional
MCF7 [38] = experiment: Induction of apoptosis in human MCF7 cells assessed as early apoptotic cells at 6 uM incubated for 24 hrs by Annexin V-FITC/PI staining based flow cytometry analysis (Rvb =0.82%); assay type: functional
[39] = AUC (0 to infinity) in nude BALB/c mouse at 20 mg/kg, IG measured after 24 hrs; assay type: ADME, organism-based; conditions: in vivo, po
[40] = Cytotoxicity in human MCF-10A cells assessed as inhibition of cell growth by MTT assay; assay type: toxicity, cell-based
MCF7 [41] = experiment: Induction of ROS production in human MCF7 cells at 3 uM incubated for 24 hrs by DCFH-DA staining based flow cytometric analysis; assay type: functional, cell-based
[42] = Cytotoxicity in HaCaT cells assessed as inhibition of cell growth by MTT assay; assay type: toxicity, cell-based; conditions: human

IC50 (HepG2 [1]): 2.15 µM
Cmax [4]: 37.5 ng/mL
IC50 (HCT-116): 3.26 µM
IC50 (MDA-MB-231): 3.14 µM
IC50 (BT-549): 3.93 µM
IC50 (MCF7 [16]): 2.3 µM
IC50 (T47D [19]): 5.57 µM
half-life [36]: 1.49 h
AUC(0-inf) [39]: 58.8 ng·h/mL
SMILES: O=C(Nc1ccc(C(=O)N/N=C/c2cccc(Cl)c2)cc1)Nc1ccc2ncccc2c1
Activity (MCF7 [2]): inactive
inhibition at 4.5 µM (MCF7 [3]): 100%
Activity (MCF7 [5]): inactive
Activity (MCF7 [6]): Active
viability at 6 µM (MCF7 [7]): 94.3%
viability at 3 µM (MCF7 [8]): 97.3%
Activity (MCF7 [9]): 0.34%
inhibition in vivo at 10 mg/kg/day (MCF7 [10]): 43.5%
Activity (MCF7 [11]): Active; Compound Showed Weak Activity Compared To Wild-Type Cells
Activity (MCF7 [12]): 0.8%
Activity (MCF7 [13]): Active
Activity (MCF7 [14]): Active
Activity (MCF7 [15]): Active
Activity (T47D [17]): Active
Activity (MCF7 [18]): Active
Activity [20]: Non-toxic
Activity (MCF7 [21]): Active
Activity (MCF7 [22]): Active
Activity (MCF7 [23]): Active
Activity (MCF7 [24]): 0.27%
Activity (MCF7 [25]): inactive
Activity [26]: Non-toxic
Activity (MCF7 [27]): Active
inhibition in vivo at 20 mg/kg/day (MCF7 [28]): 49%
Activity (HepG2 [29]): Active
Activity (MCF7 [30]): Active
Activity (HepG2 [31]): Active
Activity (MCF7 [32]): Active
Activity (MCF7 [33]): Active; Compound Showed Weak Activity Compared To Wild-Type Cells
inhibition at 50 µM (MCF7 [34]): 81%
Activity (MCF7 [35]): 1.65%
Activity (MCF7 [37]): 4.1%
Activity (MCF7 [38]): 1.29%
IC50 [40]: > 50 µM
Activity (MCF7 [41]): Active
IC50 [42]: > 50 µM
